{
  "source": "patent US10799521B2",
  "about": "“Use of icaritin in preparing medicament for preventing or treating hematocytopenia” (Lunan Pharmaceutical Group Corporation, priority 2013, dated 2020)",
  "key": {"[1]": {"design": "species or system Kunming mice", "conditions": "mouse, in vivo", "description": "Mice ascites tumor s180 cells were conventionally incubated in 1640 culture medium, at 37° C., 5% CO2, and passaged once every two days in average. The cells in the logarithmic growth phase were prepared into a single-cell suspension having a density of 3.0×10^7 cells/ml with normal saline, which was injected into the abdominal cavities of mice under sterile conditions. Seven days after inoculation, significant swelling of the abdominal cavities of mice can be seen. As this time, the mice were executed by cervical vertebra luxation, put into a beaker containing 75% ethanol and soaked for 2-3 minutes. The sterilized mice were placed into an ultraclean bench, and the abdomens were exposed. The ascites was drawn with a sterile syringe and put into a sterile reagent bottle for further use. The above ascites was counted with trypan blue, diluted with normal saline to adjust to 2.0×10^7 cells/ml, and inoculated at the right armpit of the mice with 0.2 ml for each mouse.\nThe inoculated mice were randomly divided into 6 groups, with 10 animals in each group and half male and half female.\nDocetaxel and icaritin were administered by tail intravenous injection with an administration volume of 10 ml/kg for each. Tegafur, Gimeracil and Oteracil Potassium Capsules was intragastrically administered with an administration volume of 40 ml/kg. Each group was administered once a day for totally 10 days. During the test, the animals were observed every day for their food and water uptake, survival conditions and behaviors, and measured for their body weights every day. After the test was ended, the mice were anaesthetized and anatomized. Blood was collected from abdominal aorta for routine blood test, and the total number of white blood cells, the total number of platelets and the total number of neutrophils were determined."}, "normal mice": {"system": "normal mice", "experiment": "Clotting time in normal mice (capillary method)", "format": "in vivo, Kunming mice", "design": "unit not given here", "conditions": "3 days, 1 h after last administration", "description": "100 Kunming mice were randomly divided into 5 groups, i.e. the blank control group (normal saline group), the icariin group (positive control group), the high-dose icaritin group, the medium-dose icaritin group, and the low-dose icaritin group. Each group was administered as follows.\nBlank control group: administered with the same volume of normal saline by subcutaneous injection;\nIcariin group: administered with 2 mg/kg of icariin by injection;\nHigh-dose icaritin group: administered with the injection of icaritin of Example 1 by subcutaneous injection at a dosage of 10 mg/kg;\nMedium-dose icaritin group: administered with the injection of icaritin of Example 1 by subcutaneous injection at a dosage of 5 mg/kg;\nLow-dose icaritin group: administered with the injection of icaritin of Example 1 by subcutaneous injection at a dosage of 1 mg/kg.\nMeasurement of the clotting time: The normal saline group (blank control group), the icariin group (positive control group), and the icaritin administration groups (high-, medium-, and low-dose groups) were designed as follows: 50 mice were selected, weighed and randomly divided into 5 groups, with 10 mice in each group. The animals were administered consecutively for 3 days. At 1 h after the last administration, blood was sampled from the venous plexus by inserting a disposable 20 μl blood collection tube into the inner canthus of the mouse to collect 20 μl of blood. A small fragment of capillary was broken off every 15 s for checking the occurrence of clotting filaments. The time from the blood sampling to the occurrence of fibrous protein filaments (clotting time) was recorded, and the results were shown in Table 5."}, "[2]": {"system": "mice receiving 4 Gy of ^60Co radiation", "experiment": "Effect on the number of blood cells in mice receiving 4 Gy of ^60Co radiation", "format": "in vivo, Kunming mice", "conditions": "4 Gy ^60Co irradiated mice; ip once a day for 10 days; epimedium extract 3.5 ml/kg/d, icaritin 10 mg/kg/d", "excerpt": "Mice in each group, except for the normal group (10 mice), were radiated with 4 Gy of ^60Co by one-time systemic radiation with an absorbed dose of 4 Gy and an absorbed dose rate of 0.88 Gy/min. Blood was sampled at days 3, 7 and 10 after the radiation, respectively, from orbital vein for the whole blood cell count. The mice of which the number of white blood cells was lower than 3.0×10^9/L or the number of platelets was lower than 500×10^9/L in two consecutive whole blood cell counts were excluded, and the remaining mice were used to be tested.\nThe mice which met the requirements of the experiment after the radiation were randomly divided into the following model control group, epimedium extract group and icaritin group, with 10 animals in each group and half male and half female. Each group was treated or administered as follows.\nGroup 1, the normal group: administered by intraperitoneal injection with 0.9% normal saline in an administration volume of 10 ml/kg;\nGroup 2, the model control group: administered by intraperitoneal injection with 0.9% normal saline in an administration volume of 10 ml/kg; […]\nEach group was administered once a day for totally 10 days. […] After the test was ended, blood was sampled from abdominal aorta for routine blood test, and the total number of white blood cells and the total number of platelets were determined."}},
  "note": "Marks after values point to notes of the source that are not given here.",
  "data": [
    {"compound": "COc1ccc(-c2oc3c(CC=C(C)C)c(O)cc(O)c3c(=O)c2O)cc1", "note": "[Icaritin]", "values": [
      {"measurement": "Body weight Before Administration", "setting": "[1]", "value": "21.1 ± 3.0", "unit": "g"},
      {"measurement": "Clotting Time", "setting": "normal mice; high dose 10 mg/kg sc", "value": "1.96 ± 0.16**^ΔΔ"},
      {"measurement": "Clotting Time", "setting": "normal mice; low dose 1 mg/kg sc", "value": "3.84 ± 0.55"},
      {"measurement": "Clotting Time", "setting": "normal mice; medium dose 5 mg/kg sc", "value": "3.04 ± 0.31**^Δ"},
      {"measurement": "Platelets", "setting": "[2]", "value": "596.2 ± 72.5^#$ 10^9/L"},
      {"measurement": "White blood cells", "setting": "[2]", "value": "4.225 ± 0.51^##$ 10^9/L"}
    ]}
  ]
}
